Measured values taken from patent US20180346446A1, “IRE1 SMALL MOLECULE INHIBITORS” (QUENTIS THERAPEUTICS, INC., priority 2017, published 2018).

How the values were obtained:
[1] = biological target: T1, IRE1a (Homo sapiens, UniProt O75460); experiment: IRE1a Endoribonuclease Nanoluciferase Assay (XBP1 luciferase reporter in 293T cells); format: cell-based; settings: 293T cells transfected with XBP1 luciferase reporter, ER stressors +/- inhibitors
Experimental: Compounds disclosed herein were assessed for disruption of IRE1 signaling using a IRE1a Endoribonuclease Nanoluciferase Assay. Briefly, 2.5×10^6 293T cells were seeded in a 10 cm^2 tissue culture plate. About 24 hours later, the cells were transfected with Effectene. In a 15 mL Tube, the following was added: 2 ug XBP1 luciferase reporter plasmid (PGK-Luc2-P2A-XBP1u-Nanoluciferase-PEST); 300 ul EC buffer; and 16 ul Enhancer, followed by incubation at room temp for 5 minutes. Next, 60 ul Effectene (Qiagen 301427) was added, followed by incubation at room temperature for 10 minutes. 2.6 mL cDMEM media was added. Old media was aspirated from the cells, followed by addition of 7 mL fresh media. Full transfection mixture was added dropwise to cells. Cells were incubated for 6 hours, followed by trypsinization, centrifugation and resuspension in 11 mL media. 100 uL of cells were plated per a well in a 96 well plate. A day later, ER stressors of choice +/− inhibitors were added. To harvest, media was aspirated from cells completely, then 50 uL 1× passive lysis buffer (Promega: E1941) was added per well and put on shaker (300 rpm) for 30 minutes at room temperature. Cells were centrifuged, and 15 uL sample per well was added to a new, opaque white 384 well plate (Corning 3570). 15 uL OneGlo (nanoluciferase kit, Promega N1630) was added. Plates were spun down, placed on shaker (300 rpm) for 10 minutes. Plates were read on luminometer, 1000 ms integration time per well. 15 uL Stop and Glo (nanoluciferase kit) was added. Plates were spun down, placed on shaker (300 rpm) for 10 minutes. Plates were read on luminometer, 1000 ms second integration time per well. Recordings are provided below in Table 4.

[2] = biological target: T1, IRE1a; experiment: In vitro FRET assay (XBP1 RNA probe cleavage by IRE1a); format: biochemical; parameters: purchased SignalChem; settings: 2 nM IRE1a protein
Experimental: In vitro FRET assay was performed to evaluate the ability of select compounds to inhibit IRE1, the results of which are summarized in Table 3. To perform the in vitro FRET assay, 1× complete assay buffer (CAB; […], 50 mM sodium citrate pH 7.15, ImM magnesium acetate, 0.02% tween 20) was used to dilute SignalChem IRE1a protein to a final concentration of 2 nM. Selected compounds were serially diluted with DMSO in a non-binding black 384-well plate for a total of 15 ul in each well. 2 ul of the serially diluted compound or DMSO control were then added to new wells containing 98 ul of 1×CAB, for a total volume of 100 ul, 10 ul of which were then transferred to wells of a new plate. 5 ul of the diluted IRE1a was then added to each well. 5 ul of a […] XBP1 RNA probe was then added to each well. Fluorescence was then read over 30 minutes in kinetic mode (485/515 nm).
Two RNA probes were used, XBP1 wildtype (SEQ ID NO: 2) which is able to be spliced by active IRE1a or XBP1 mutant (SEQ ID NO: 3) which is unable to be spliced. Each probe contained a 5′ 6-FAM modification and a 3′ IOWA Black FQ modification. […]

T1 sequence (O75460 19-977): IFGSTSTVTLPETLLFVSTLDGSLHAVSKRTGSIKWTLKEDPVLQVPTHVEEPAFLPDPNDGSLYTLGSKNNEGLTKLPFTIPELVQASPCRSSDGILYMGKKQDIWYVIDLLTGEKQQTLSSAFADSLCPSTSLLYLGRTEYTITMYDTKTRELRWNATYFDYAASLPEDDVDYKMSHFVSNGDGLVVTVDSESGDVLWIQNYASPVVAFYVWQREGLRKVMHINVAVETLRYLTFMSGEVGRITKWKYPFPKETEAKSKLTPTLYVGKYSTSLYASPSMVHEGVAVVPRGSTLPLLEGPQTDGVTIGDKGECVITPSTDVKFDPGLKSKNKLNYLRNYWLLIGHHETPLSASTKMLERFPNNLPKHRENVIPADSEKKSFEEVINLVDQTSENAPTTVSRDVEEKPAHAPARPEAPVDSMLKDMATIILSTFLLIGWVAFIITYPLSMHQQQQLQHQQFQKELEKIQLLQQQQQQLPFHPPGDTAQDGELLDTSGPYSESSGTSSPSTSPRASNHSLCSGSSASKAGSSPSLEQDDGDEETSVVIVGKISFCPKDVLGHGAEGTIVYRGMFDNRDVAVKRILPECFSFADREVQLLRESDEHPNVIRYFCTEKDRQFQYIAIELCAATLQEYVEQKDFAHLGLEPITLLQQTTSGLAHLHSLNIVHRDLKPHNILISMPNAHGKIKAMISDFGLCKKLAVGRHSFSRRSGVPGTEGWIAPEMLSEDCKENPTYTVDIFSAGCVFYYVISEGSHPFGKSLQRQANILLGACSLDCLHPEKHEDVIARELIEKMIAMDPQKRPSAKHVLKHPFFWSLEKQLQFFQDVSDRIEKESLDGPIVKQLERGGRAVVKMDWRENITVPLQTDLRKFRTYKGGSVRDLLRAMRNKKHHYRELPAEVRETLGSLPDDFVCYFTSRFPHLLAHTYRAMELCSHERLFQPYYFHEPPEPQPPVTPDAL

Compound | EC50 [1] [nM] | IC50 [2] [nM]
CCc1nc(NS(=O)(=O)c2ccccc2Cl)ccc1-c1cc(CC)c2nc(NC34CCC(N(C)C)(CC3)CC4)ncc2c1 [136; Formic Acid] | ≤ 5 | ≤ 5
N[C@H]1CC[C@H](Nc2cc3ccc(-c4ccc(NS(=O)(=O)c5ccccc5Cl)c(F)c4)cc3cn2)CC1 [57; Formic Acid] | ≤ 5 | ≤ 5
N[C@@H]1CC[C@@H](Nc2ncc3cc(-c4ccc(NS(=O)(=O)c5ccccc5Cl)c(F)c4)ccc3n2)C1 [77; Formic Acid] | 5 to 50 | ≤ 5
CCc1cc(-c2ccc(NS(=O)(=O)c3ccccc3)nc2C)cc2cnc(N[C@H]3CC[C@H](N)CC3)nc12 [111; Formic Acid] | 50 to 100 | ≤ 5
CCc1cc(-c2ccc(NS(=O)(=O)c3ccccc3OC)nc2OC)cc2cnc(N[C@H]3CC[C@H](N)CC3)nc12 [109; Formic Acid] | ≤ 5 | ≤ 5
N-(4-(2-(((1r,4r)-4-aminocyclohexyl)amino)quinazolin-6-yl)-3-methylphenyl)-3-chlorobenzenesulfonamide [Compound 11] | > 100 | ≤ 5
Cc1nc(NS(=O)(=O)c2ccccc2Cl)ncc1-c1ccc2nc(N[C@H]3CC[C@H](N)CC3)ncc2c1 [68; Formic Acid] | 50 to 100 | ≤ 5
NC1CCCC(Nc2ncc3cc(-c4ccc(NS(=O)(=O)c5ccccc5Cl)c(F)c4)ccc3n2)C1 (centres unmarked) [75; Formic Acid] | > 100 | ≤ 5
CCc1cc(-c2ccc(NS(=O)(=O)c3ccccc3Cl)c(F)c2)cc2cnc(NC34CCC(N)(CC3)CC4)nc12 [87; Formic Acid] | ≤ 5 | ≤ 5
CCc1cc(-c2ncc(NS(=O)(=O)c3ccccc3Cl)nc2OC)cc2cnc(N[C@H]3CC[C@H](N)CC3)nc12 [98; Formic Acid] | ≤ 5 | ≤ 5
CCc1cc(-c2ccc(NS(=O)(=O)c3ccccc3Cl)c(F)c2)cc2cnc(N[C@H]3CC[C@H](NC)CC3)nc12 [60; Formic Acid] | ≤ 5 | ≤ 5
CCc1cc(-c2ccc(NS(=O)(=O)c3ccccc3Cl)c(F)c2)cc2cnc(N[C@@H]3CCC[C@H](N)C3)nc12 [72; Formic Acid] | > 100 | ≤ 5
N[C@H]1CC[C@H](Nc2ncc3cc(-c4cnc(NS(=O)(=O)c5ccccc5Cl)c(F)c4)ccc3n2)CC1 [54; Formic Acid] | 5 to 50 | ≤ 5
CCc1cc(-c2ccc(NS(=O)(=O)c3ccccc3Cl)c(F)c2)cc2cnc(N[C@H]3CC[C@H](N4CCCC4)CC3)nc12 [88; Formic Acid] | ≤ 5 | ≤ 5
CCc1cc(-c2cc(F)c(NS(=O)(=O)c3ccccc3Cl)cc2OC)cc2cnc(N[C@H]3CC[C@H](N(C)C)CC3)nc12 [120; Formic Acid] | ≤ 5 | ≤ 5
COc1nc(NS(=O)(=O)c2ccccc2Cl)ccc1-c1cc(C(F)(F)F)c2nc(N[C@H]3CC[C@H](N)CC3)ncc2c1 [134; Formic Acid] | ≤ 5 | ≤ 5
CCCc1cc(-c2cc(NS(=O)(=O)c3ccccc3Cl)nn2C)cc2cnc(N[C@H]3CC[C@H](N)CC3)nc12 [47; Formic Acid] | 5 to 50 | ≤ 5
Cn1nc(NS(=O)(=O)c2ccccc2Cl)cc1-c1ccc2nc(N[C@H]3CC[C@H](N)CC3)ncc2c1 [Compound 1, N-(5-(2-(((1r,4r)-4-aminocyclohexyl)amino)quinazolin-6-yl)-1-methyl-1H-pyrazol-3-yl)-2-chlorobenzenesulfonamide] | > 100 | 5 to 50
CCc1cc(-c2ccc(NS(=O)(=O)c3ccccc3Cl)c(F)c2)cc2cnc(N[C@@H]3CC[C@H](N)[C@H](C)C3)nc12 [70; Formic Acid] | ≤ 5 | ≤ 5
N[C@H]1CC[C@H](Nc2ncc3cc(-c4ccc(NS(=O)(=O)c5ccccc5Cl)c(F)c4F)ccc3n2)CC1 [56; Formic Acid] | ≤ 5 | ≤ 5

Compound | EC50 [1] [nM] | IC50 [2] [nM]
N[C@H]1CC[C@H](Nc2ncc3cc(-c4nnc(NS(=O)(=O)c5ccccc5Cl)s4)ccc3n2)CC1 [89; Formic Acid] | > 100 | ≤ 5
N[C@H]1CC[C@H](Nc2ncc3cc(-c4ncc(NS(=O)(=O)c5ccccc5Cl)cc4F)ccc3n2)CC1 [51; Formic Acid] | 50 to 100 | ≤ 5
Cc1cc2nc(N[C@H]3CC[C@H](N)CC3)ncc2cc1-c1ccc(NS(=O)(=O)c2ccccc2Cl)c(F)c1 [90; Formic Acid] | 5 to 50 | ≤ 5
CCc1cc(-c2ncc(NS(=O)(=O)c3ccccc3Cl)nc2C)cc2cnc(N[C@H]3CC[C@H](N)CC3)nc12 [94; Formic Acid] | ≤ 5 | ≤ 5
CCc1cc(-c2ccc(NS(=O)(=O)c3ccccc3Cl)c(F)c2)cc2cnc(N[C@H]3CC4C[C@H](N)CC4C3)nc12 (some centres unmarked) [82; Formic Acid] | 5 to 50 | ≤ 5
CCc1cc(-c2ccc(NS(=O)(=O)c3ccccc3C)nc2OC)cc2cnc(N[C@H]3CC[C@H](N)CC3)nc12 [103; Formic Acid] | ≤ 5 | ≤ 5
CCc1cc(-c2cc(NS(=O)(=O)c3ccccc3Cl)no2)cc2cnc(N[C@H]3CC[C@H](N)CC3)nc12 [44; Formic Acid] | ≤ 5 | ≤ 5
NC12CCC(Nc3ncc4cc(-c5ccc(NS(=O)(=O)c6ccccc6Cl)c(F)c5)ccc4n3)(CC1)CC2 [81; Formic Acid] | ≤ 5 | ≤ 5
CCc1cc(-c2ccc(NS(=O)(=O)c3ccccc3C)nc2C)cc2cnc(N[C@H]3CC[C@H](N)CC3)nc12 [112; Formic Acid] | 5 to 50 | ≤ 5
CCc1cc(-c2cc(NS(=O)(=O)c3ccccc3Cl)nn2C)cc2cnc(N[C@H]3CC[C@H](N)CC3)nc12 [Compound 6, N-(5-(2-(((1r,4r)-4-aminocyclohexyl)amino)-8-ethylquinazolin-6-yl)-1-methyl-1H-pyrazol-3-yl)-2-chlorobenzenesulfonamide] | 50 to 100 | ≤ 5
CCc1cc(-c2ccc(NS(=O)(=O)c3ccccc3Cl)c(F)c2)cc2cnc(N[C@@H]3CC[C@@H](N)C3)nc12 [78; Formic Acid] | ≤ 5 | ≤ 5
CCc1cc(-c2ccc(NS(=O)(=O)c3cccc(C)c3)nc2C)cc2cnc(N[C@H]3CC[C@H](N)CC3)nc12 [113; Formic Acid] | 5 to 50 | ≤ 5
CCc1cc(-c2cnc(NS(=O)(=O)c3ccccc3Cl)cc2C)cc2cnc(N[C@H]3CC[C@H](N)CC3)nc12 [Compound 4, N-(5-(2-(((1r,4r)-4-aminocyclohexyl)amino)-8-ethylquinazolin-6-yl)-4-methylpyridin-2-yl)-2-chlorobenzenesulfonamide] | 50 to 100 | ≤ 5
N[C@H]1CC[C@@H](Nc2ncc3cc(-c4ccc(NS(=O)(=O)c5ccccc5Cl)c(F)c4)ccc3n2)C1 [80; Formic Acid] | > 100 | ≤ 5
N[C@H]1CC[C@H](Nc2ncc3cc(-c4ccc(NS(=O)(=O)c5ccccc5Cl)cc4)ccc3n2)CC1 [26; Formic Acid] | ≤ 5 | ≤ 5
COCc1cc(-c2ccc(NS(=O)(=O)c3ccccc3Cl)nc2OC)cc2cnc(N[C@H]3CC[C@H](N)CC3)nc12 [129; Formic Acid] | ≤ 5 | ≤ 5
Cc1cc(NS(=O)(=O)c2ccccc2Cl)ncc1-c1ccc2nc(N[C@H]3CC[C@H](N)CC3)ncc2c1 [Compound 5, N-(5-(2-(((1r,4r)-4-aminocyclohexyl)amino)quinazolin-6-yl)-4-methylpyridin-2-yl)-2-chlorobenzenesulfonamide] | > 100 | ≤ 5
COc1nc(NS(=O)(=O)c2ccccc2C#N)ccc1-c1cc2cnc(N[C@H]3CC[C@H](N)CC3)nc2cc1C [102; Formic Acid] | 50 to 100 | ≤ 5
CCc1cc(-c2cc(CC)c3nc(N[C@H]4CC[C@H](N)CC4)ncc3c2)nnc1NS(=O)(=O)c1ccccc1Cl [100; Formic Acid] | 50 to 100 | ≤ 5
NC12CCC(Nc3ncc4cc(-c5ccc(NS(=O)(=O)c6ccccc6Cl)c(F)c5)ccc4n3)(CC1)C2 [86; Formic Acid] | 50 to 100 | ≤ 5
